From BigSolDB 2.1

Settings: in water

Row | SMILES | solubility (mole fraction) (298.15 K) | solubility (mole fraction) (307.15 K) | solubility (mole fraction) (317.15 K) | solubility (mole fraction) (318.15 K) | solubility (mole fraction) (320.15 K) | solubility (mole fraction) (323.15 K) | solubility (mole fraction) (325.15 K) | solubility (mole fraction) (327.15 K) | solubility (mole fraction) (328.15 K) | solubility (mole fraction) (330.65 K) | solubility (mole fraction) (279.15 K) | solubility (mole fraction) (281.15 K) | solubility (mole fraction) (284.15 K) | solubility (mole fraction) (289.15 K) | solubility (mole fraction) (291.15 K) | solubility (mole fraction) (293.15 K) | solubility (mole fraction) (302.15 K) | solubility (mole fraction) (304.15 K) | solubility (mole fraction) (310.15 K) | solubility (mole fraction) (316.15 K) | other results
1 | O=C(O)c1ccccc1O | 0.000333 | 0.000441 | 0.000572 | 0.000677 | 0.000672 | 0.000742 | 0.000847 | 0.000934 | 0.000964 | 0.00111 |  |  |  |  |  |  |  |  |  |  | solubility (mole fraction) (283.15 K): 0.0002; solubility (mole fraction) (324.15 K): 0.000785; solubility (mole fraction) (334.65 K): 0.00131; solubility (mole fraction) (339.15 K): 0.00149
2 | O=C(O)CCCCCC(=O)O | 0.00756 | 0.0113 |  | 0.0464 |  | 0.0776 |  |  |  |  | 0.00204 | 0.00211 | 0.00245 | 0.00417 | 0.00474 | 0.00568 | 0.00906 | 0.00994 | 0.0132 | 0.0364 | solubility (mole fraction) (297.15 K): 0.00738; solubility (mole fraction) (313.15 K): 0.0186; solubility (mole fraction) (320.65 K): 0.0584; solubility (mole fraction) (327.98 K): 0.14; solubility (mole fraction) (333.15 K): 0.189; solubility (mole fraction) (337.65 K): 0.261; solubility (mole fraction) (342.15 K): 0.328
3 | O=C(O)c1ccccc1C(=O)O | 0.000761 | 0.00107 | 0.00164 | 0.00164 | 0.00205 | 0.00223 |  | 0.00248 |  |  |  |  |  |  |  |  |  |  |  |  | solubility (mole fraction) (283.65 K): 0.000284; solubility (mole fraction) (296.15 K): 0.000709; solubility (mole fraction) (302.65 K): 0.000935; solubility (mole fraction) (309.15 K): 0.00119; solubility (mole fraction) (311.15 K): 0.00126; solubility (mole fraction) (315.15 K): 0.00151; solubility (mole fraction) (319.15 K): 0.00181; solubility (mole fraction) (334.15 K): 0.00323; solubility (mole fraction) (338.15 K): 0.004
4 | O=C(O)CCCC(=O)O | 0.16 | 0.216 | 0.287 | 0.289 |  | 0.327 |  |  |  |  | 0.0734 | 0.0784 | 0.085 | 0.118 | 0.129 | 0.139 | 0.189 | 0.2 | 0.236 | 0.281 | solubility (mole fraction) (286.15 K): 0.101; solubility (mole fraction) (312.15 K): 0.249; solubility (mole fraction) (320.55 K): 0.308; solubility (mole fraction) (327.65 K): 0.355; solubility (mole fraction) (329.15 K): 0.398; solubility (mole fraction) (332.15 K): 0.419; solubility (mole fraction) (334.25 K): 0.424; solubility (mole fraction) (336.15 K): 0.478; solubility (mole fraction) (342.15 K): 0.537
5 | O=C(O)c1ccco1 | 0.00796 | 0.0125 | 0.0257 |  |  | 0.0513 | 0.0664 | 0.0722 | 0.0907 | 0.128 | 0.00411 |  | 0.00462 | 0.00483 |  |  | 0.0099 |  |  |  | solubility (mole fraction) (280.15 K): 0.00414; solubility (mole fraction) (283.65 K): 0.00431; solubility (mole fraction) (285.15 K): 0.00471; solubility (mole fraction) (294.15 K): 0.00633; solubility (mole fraction) (301.15 K): 0.00886; solubility (mole fraction) (309.15 K): 0.013; solubility (mole fraction) (311.15 K): 0.0154; solubility (mole fraction) (315.15 K): 0.0231; solubility (mole fraction) (319.8 K): 0.031; solubility (mole fraction) (327.65 K): 0.074; solubility (mole fraction) (333.2 K): 0.144; solubility (mole fraction) (334.55 K): 0.144; solubility (mole fraction) (336.15 K): 0.199; solubility (mole fraction) (341.15 K): 0.262
